Drawing on patent publication US20250064941A1, “SIGLEC LIGANDS, CONJUGATES, AND METHODS OF USE THEREOF” (Osprey Biopharmaceuticals, Inc., priority 2023, published 2025), this text covers Kd for seven compounds.

pKd: −log10 of the molar value.

One assay deals with cynomolgus Siglec-2/CD22 (Macaca fascicularis, UniProt A0A2K5WCZ6). The experiment in a line: biochemical. It is filed as binding. The following applies: SPR, steady-state analysis; read-out: Affinity cyno CD22. Put shortly:
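SPR with desialylated (SialoExo, 4 h, 37° C.) cynomolgus CD22 amine-coupled to a CM5 chip. Running buffer 10 mM HEPES, 150 mM NaCl, 0.05% Tween-20, pH 7.5, 1% DMSO, with solvent correction; 120 s dissociation. Affinities from steady-state analysis.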

For assay [1], the target named is T1, mouse Siglec-2-Fc-Avi (CD22) (Mus musculus, UniProt P35329).
T1 construct: made in house
T1 sequence (P35329 22-708 limits assumed): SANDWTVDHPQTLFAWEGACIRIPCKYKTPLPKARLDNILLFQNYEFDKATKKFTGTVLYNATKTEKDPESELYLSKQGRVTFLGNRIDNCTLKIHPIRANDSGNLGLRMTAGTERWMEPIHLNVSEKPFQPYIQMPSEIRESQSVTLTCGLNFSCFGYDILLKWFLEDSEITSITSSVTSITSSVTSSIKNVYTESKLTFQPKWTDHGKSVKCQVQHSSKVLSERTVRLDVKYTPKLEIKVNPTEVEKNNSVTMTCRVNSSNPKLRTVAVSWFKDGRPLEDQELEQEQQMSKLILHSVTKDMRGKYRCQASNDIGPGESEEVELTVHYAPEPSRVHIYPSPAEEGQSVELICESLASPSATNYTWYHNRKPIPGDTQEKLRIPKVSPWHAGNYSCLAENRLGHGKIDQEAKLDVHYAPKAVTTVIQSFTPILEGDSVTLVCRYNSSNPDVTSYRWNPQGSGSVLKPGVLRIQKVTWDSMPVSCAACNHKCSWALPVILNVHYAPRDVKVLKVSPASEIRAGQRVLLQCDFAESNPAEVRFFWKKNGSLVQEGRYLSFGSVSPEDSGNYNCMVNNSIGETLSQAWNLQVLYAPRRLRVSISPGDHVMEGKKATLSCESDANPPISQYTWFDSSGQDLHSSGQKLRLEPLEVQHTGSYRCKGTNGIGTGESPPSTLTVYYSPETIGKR
The experiment in a line: SPR binding affinity to mouse CD22. To be noted: steady-state analysis. In short, it runs like this:
(§1)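 SialoExo pretreatment, 4 h 37° C.; biotinylated CD22 on SA chip, Biacore 8K. Buffer 10 mM HEPES, 150 mM NaCl, 0.05% Tween-20, pH 7.5, 1% DMSO. Dissociation 120 s; solvent-corrected; steady-state KD.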
Background: Surface plasmon resonance follows binding to a sensor surface in real time, without labels.

In assay [2] the target is T2, human Siglec-2/CD22 protein (Homo sapiens, UniProt P20273).
T2 construct: purchased Acro Biosystems SI2-H82E3
T2 sequence (P20273 20-847): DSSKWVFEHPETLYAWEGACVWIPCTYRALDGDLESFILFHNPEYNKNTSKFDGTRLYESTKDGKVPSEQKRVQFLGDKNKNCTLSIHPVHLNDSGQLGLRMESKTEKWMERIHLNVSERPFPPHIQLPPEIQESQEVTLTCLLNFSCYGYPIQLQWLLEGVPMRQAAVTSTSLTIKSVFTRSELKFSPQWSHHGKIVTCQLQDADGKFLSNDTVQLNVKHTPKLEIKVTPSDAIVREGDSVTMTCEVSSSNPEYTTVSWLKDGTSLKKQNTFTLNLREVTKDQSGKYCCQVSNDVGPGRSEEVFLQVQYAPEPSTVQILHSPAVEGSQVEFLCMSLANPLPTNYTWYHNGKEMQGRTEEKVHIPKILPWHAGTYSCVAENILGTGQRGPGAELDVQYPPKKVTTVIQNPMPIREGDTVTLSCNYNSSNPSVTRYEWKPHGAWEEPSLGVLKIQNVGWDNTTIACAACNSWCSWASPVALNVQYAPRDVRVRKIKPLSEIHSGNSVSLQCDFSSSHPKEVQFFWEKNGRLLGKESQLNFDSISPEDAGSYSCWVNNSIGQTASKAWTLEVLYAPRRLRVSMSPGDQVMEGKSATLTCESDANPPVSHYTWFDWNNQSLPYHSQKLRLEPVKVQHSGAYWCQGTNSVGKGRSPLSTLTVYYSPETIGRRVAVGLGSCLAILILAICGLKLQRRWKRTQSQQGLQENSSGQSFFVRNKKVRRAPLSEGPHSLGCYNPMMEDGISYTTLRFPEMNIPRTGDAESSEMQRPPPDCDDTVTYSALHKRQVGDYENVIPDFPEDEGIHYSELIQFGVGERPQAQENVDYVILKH
Description: SPR binding affinity to human CD22. To be noted: steady-state analysis. Put shortly:
as §1

Chain of cynomolgus Siglec-2/CD22 (A0A2K5WCZ6 entry or part of it): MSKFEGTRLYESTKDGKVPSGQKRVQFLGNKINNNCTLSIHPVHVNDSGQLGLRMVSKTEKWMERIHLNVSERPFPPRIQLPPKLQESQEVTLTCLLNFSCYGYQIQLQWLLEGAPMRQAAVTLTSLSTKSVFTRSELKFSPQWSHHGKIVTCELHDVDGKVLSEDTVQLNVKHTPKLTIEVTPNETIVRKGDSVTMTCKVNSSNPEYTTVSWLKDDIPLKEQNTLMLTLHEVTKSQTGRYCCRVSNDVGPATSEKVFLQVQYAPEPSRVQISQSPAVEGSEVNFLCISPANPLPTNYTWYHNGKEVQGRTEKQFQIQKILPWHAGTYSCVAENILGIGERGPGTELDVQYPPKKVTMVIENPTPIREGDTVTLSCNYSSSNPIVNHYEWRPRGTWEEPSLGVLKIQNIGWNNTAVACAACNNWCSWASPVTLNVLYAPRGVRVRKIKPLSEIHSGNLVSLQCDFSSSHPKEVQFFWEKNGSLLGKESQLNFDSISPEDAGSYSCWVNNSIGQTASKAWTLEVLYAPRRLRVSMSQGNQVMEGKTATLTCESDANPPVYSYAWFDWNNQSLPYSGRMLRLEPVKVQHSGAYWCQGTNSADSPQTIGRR

For `C#CCOc1ccc(CO[C@]2(C(=O)O)C[C@H](O)[C@@H](NC(=O)CO)[C@H]([C@H](O)[C@H](O)CNC(=O)Cc3ccc(O)cc3)O2)cc1` [Compound 146, (2R,4S,5R,6R)-6-((1R,2R)-1,2-dihydroxy-3-(2-(4-hydroxyphenyl)acetamido)propyl)-4-hydroxy-5-(2-hydroxyacetamido)-2-((4-(prop-2-yn-1-yloxy)benzyl)oxy)tetrahydro-2H-pyran-2-carboxylic acid], the pKd on cynomolgus Siglec-2/CD22 was above 6.00; in assay [1], 5.00 to 6.00; in assay [2], 5.00 to 6.00.

Consider `C#CCCCCCCc1cn([C@]2(C(=O)O)C[C@H](O)[C@@H](NC(=O)CO)[C@H]([C@H](O)[C@H](O)CNC(=O)Cc3cccc(O)c3)O2)nn1` [Compound 147, (2R,4S,5R,6R)-6-((1R,2R)-1,2-dihydroxy-3-(2-(3-hydroxyphenyl)acetamido)propyl)-4-hydroxy-5-(2-hydroxyacetamido)-2-(4-(oct-7-yn-1-yl)-1H-1,2,3-triazol-1-yl)tetrahydro-2H-pyran-2-carboxylic acid], for which the pKd (on cynomolgus Siglec-2/CD22; in assay [1]; in assay [2]) was 5.00 to 6.00 in each case.

As for `C#CCCOc1ccc(CS[C@]2(C(=O)O)C[C@H](O)[C@@H](NC(=O)CO)[C@H]([C@H](O)[C@H](O)CNC(=O)Cc3ccc(O)cc3)O2)cc1` [Compound 148, (2S,4S,5R,6R)-2-((4-(but-3-yn-1-yloxy)benzyl)thio)-6-((1R,2R)-1,2-dihydroxy-3-(2-(4-hydroxyphenyl)acetamido)propyl)-4-hydroxy-5-(2-hydroxyacetamido)tetrahydro-2H-pyran-2-carboxylic acid], the pKd is 5.00 to 6.00 at cynomolgus Siglec-2/CD22, above 6.00 in assay [1] and above 6.00 in assay [2].

In the case of `C#CCCOc1ccc(CS[C@]2(C(=O)O)C[C@H](O)[C@@H](NC(=O)CO)[C@H]([C@H](O)[C@H](O)CNC(=O)Cc3cccc(O)c3)O2)cc1` [Compound 149, (2S,4S,5R,6R)-2-((4-(but-3-yn-1-yloxy)benzyl)thio)-6-((1R,2R)-1,2-dihydroxy-3-(2-(3-hydroxyphenyl)acetamido)propyl)-4-hydroxy-5-(2-hydroxyacetamido)tetrahydro-2H-pyran-2-carboxylic acid], the pKd on cynomolgus Siglec-2/CD22 was 5.00 to 6.00; in assay [1] it was 5.00 to 6.00; in assay [2], above 6.00.

On to `C#CCOc1ccc(CO[C@]2(C(=O)O)C[C@H](O)[C@@H](NC(=O)CO)[C@H]([C@H](O)[C@H](O)CNC(=O)Cc3cccc(O)c3)O2)cc1` [Compound 150, (2R,4S,5R,6R)-6-((1R,2R)-1,2-dihydroxy-3-(2-(3-hydroxyphenyl)acetamido)propyl)-4-hydroxy-5-(2-hydroxyacetamido)-2-((4-(prop-2-yn-1-yloxy)benzyl)oxy)tetrahydro-2H-pyran-2-carboxylic acid], for which the figures for the pKd (on cynomolgus Siglec-2/CD22; in assay [1]; in assay [2]) were 5.00 to 6.00, 5.00 to 6.00 and above 6.00, respectively.

In the case of `C#CCOCCOCCO[C@]1(C(=O)O)C[C@H](O)[C@@H](NC(=O)CO)[C@H]([C@H](O)[C@H](O)CNC(=O)Cc2ccccc2O)O1` [Compound 151, (2R,4S,5R,6R)-6-((1R,2R)-1,2-dihydroxy-3-(2-(2-hydroxyphenyl)acetamido)propyl)-4-hydroxy-5-(2-hydroxyacetamido)-2-(2-(2-(prop-2-yn-1-yloxy)ethoxy)ethoxy)tetrahydro-2H-pyran-2-carboxylic acid], the figures for the pKd (on cynomolgus Siglec-2/CD22; in assay [1]; in assay [2]) were below 5.00, 5.00 to 6.00 and 5.00 to 6.00, respectively.

On to `C#CCOCCOCCO[C@]1(C(=O)O)C[C@H](O)[C@@H](NC(=O)CO)[C@H]([C@H](O)[C@H](O)CNC(=O)Cc2cccc(O)c2)O1` [Compound 152, (2R,4S,5R,6R)-6-((1R,2R)-1,2-dihydroxy-3-(2-(3-hydroxyphenyl)acetamido)propyl)-4-hydroxy-5-(2-hydroxyacetamido)-2-(2-(2-(prop-2-yn-1-yloxy)ethoxy)ethoxy)tetrahydro-2H-pyran-2-carboxylic acid], for which the pKd was 5.00 to 6.00 at cynomolgus Siglec-2/CD22, above 6.00 in assay [1] and 5.00 to 6.00 in assay [2].
